Results as given in paper PMC8305912, “The HDAC/HSP90 Inhibitor G570 Attenuated Blue Light-Induced Cell Migration in RPE Cells and Neovascularization in Mice through Decreased VEGF Production” (Molecules, 2021).

Tests used:
[1] = system: HeLa nuclear extract HDAC; assay: HeLa nuclear extract HDAC activity assay; format: biochemical; conditions: HeLa nuclear extract as HDAC source
Hsp90α = biological target: T1, Hsp90α (Homo sapiens, UniProt P07900); assay: Heat shock protein (Hsp) 90α activity assay (fluorescence polarization, FITC-labeled geldanamycin); format: binding; conditions: read-out: HSP90 IC50
T1 construct: purchased BPS Bioscience

[2] = system: laser-induced choroidal neovascularization (CNV); assay: Laser-induced choroidal neovascularization (CNV) model, fundus fluorescein angiography; format: in vivo, C57BL/6 mice; conditions: day 7, vs vehicle; G570 20 mg/kg/day i.p. days 0, 1, 3, 5; Eylea 40 μg/1 μL per eye i.v.t. day 0

Molecule	IC50 (Hsp90α)	other results
COc1c(C)cnc(Cn2cnc3c(Cl)nc(N)nc32)c1C [BIIB021]		IC50 [1]: > 1000 nM
CC(C)c1cc(C(=O)N2CCc3cc(NC(=O)CCC(=O)NO)ccc32)c(O)cc1O [Compound 1, N1-(1-(2,4-dihydroxy-5-isopropylbenzoyl)indolin-5-yl)-N4-hydroxysuccinamide]	49.3 ± 1.6 nM	
CC(C)c1cc(C(=O)N2CCc3cc(NC(=O)CCCC(=O)NO)ccc32)c(O)cc1O [Compound 2, N1-(1-(2,4-dihydroxy-5-isopropylbenzoyl)indolin-5-yl)-N5-hydroxyglutaramide]	55.9 ± 3.2 nM	
CC(C)c1cc(C(=O)N2CCc3cc(NC(=O)CCCCCC(=O)NO)ccc32)c(O)cc1O [Compound 4, N1-(1-(2,4-dihydroxy-5-isopropylbenzoyl)indolin-5-yl)-N7-hydroxyheptanediamide]	40.2 ± 5.2 nM	
CC(C)c1cc(C(=O)N2CCc3cc(NC(=O)CCCCCCCC(=O)NO)ccc32)c(O)cc1O [Compound 6, N1-(1-(2,4-dihydroxy-5-isopropylbenzoyl)indolin-5-yl)-N9-hydroxynonanediamide]	52.1 ± 2.9 nM	
CC(C)c1cc(C(=O)N2CCc3cc(NC(=O)CCCCCCCCC(=O)NO)ccc32)c(O)cc1O [Compound 7, N1-(1-(2,4-dihydroxy-5-isopropylbenzoyl)indolin-5-yl)-N10-hydroxydecanediamide]	58.6 ± 2.2 nM	
O=C(CCCCCCC(=O)Nc1ccccc1)NO [SAHA, reference compound]	> 1000 nM	
aflibercept [Eylea]		laser-induced leakage area of fluorescein (FFA) [2]: significantly decreased
